Measurements reported in patent US20240342292A1, “Compounds for the Degradation of EGFR Kinase” (BeiGene Switzerland GmbH, priority 2021, published 2024).

Legend:
L858R/T790M/C797S EGFR = biological target: T1, L858R/T790M/C797S EGFR (Homo sapiens, UniProt P00533, C797S/L858R/T790M); assay: EGFR degradation HTRF assay in H1975-clone #25 (LTC) cells; type: cell-based; settings: 16h treatment; for DC50: H1975 # 25-LTC (L858R/T790M/C797S), HTRF; for Dmax: NCI-H1975, H1975 # 25-LTC (L858R/T790M/C797S), maximum percentage of degradation
T1 construct: expressed in transfected cells; host or cells: H1975 clone #25 (lentiviral over-expression, endogenous EGFR knocked out by sgRNA)
T1 sequence (P00533 25-1210 T790M/C797S/L858R): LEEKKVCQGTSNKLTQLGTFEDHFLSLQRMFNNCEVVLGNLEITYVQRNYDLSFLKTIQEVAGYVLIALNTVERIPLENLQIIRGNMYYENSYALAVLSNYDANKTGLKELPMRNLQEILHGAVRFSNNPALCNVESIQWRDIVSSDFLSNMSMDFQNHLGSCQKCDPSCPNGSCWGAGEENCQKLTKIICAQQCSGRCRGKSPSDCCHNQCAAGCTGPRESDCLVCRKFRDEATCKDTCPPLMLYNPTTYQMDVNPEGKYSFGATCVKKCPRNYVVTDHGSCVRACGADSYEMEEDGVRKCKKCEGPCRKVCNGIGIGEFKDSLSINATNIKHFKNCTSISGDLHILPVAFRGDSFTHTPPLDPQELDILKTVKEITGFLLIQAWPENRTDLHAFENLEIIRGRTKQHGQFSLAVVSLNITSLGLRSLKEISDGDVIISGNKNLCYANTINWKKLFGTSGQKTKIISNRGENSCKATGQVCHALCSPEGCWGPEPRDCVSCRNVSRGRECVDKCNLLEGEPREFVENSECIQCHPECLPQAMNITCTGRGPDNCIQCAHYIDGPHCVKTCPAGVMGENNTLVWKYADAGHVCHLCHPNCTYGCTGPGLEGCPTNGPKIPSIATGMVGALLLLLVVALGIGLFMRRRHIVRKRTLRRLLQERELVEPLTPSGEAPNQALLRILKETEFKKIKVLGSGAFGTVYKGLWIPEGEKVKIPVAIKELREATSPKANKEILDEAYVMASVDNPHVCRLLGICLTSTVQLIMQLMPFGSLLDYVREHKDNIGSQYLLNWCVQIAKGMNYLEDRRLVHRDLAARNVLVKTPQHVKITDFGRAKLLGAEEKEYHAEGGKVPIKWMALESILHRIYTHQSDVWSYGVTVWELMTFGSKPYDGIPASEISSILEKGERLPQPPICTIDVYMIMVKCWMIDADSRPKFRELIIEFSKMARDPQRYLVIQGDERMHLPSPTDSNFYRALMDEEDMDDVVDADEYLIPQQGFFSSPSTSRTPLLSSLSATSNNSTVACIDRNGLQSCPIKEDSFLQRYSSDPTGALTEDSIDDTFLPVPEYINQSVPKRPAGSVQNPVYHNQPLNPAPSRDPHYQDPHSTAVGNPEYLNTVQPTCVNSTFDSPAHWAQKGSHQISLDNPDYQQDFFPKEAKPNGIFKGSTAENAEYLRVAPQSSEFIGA
Outline: (§1)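 EGFR levels quantified by HTRF on lysates after 16 h compound exposure (top 10 uM, 5-fold, 8 points) in single-cell H1975 clones expressing only exogenous mutant EGFR after sgRNA knockout of endogenous copies. DC50 derived by four-parameter logistic fitting of inhibition percentage.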

Del19/T790M/C797S EGFR = assay: EGFR degradation HTRF assay in H1975-clone #28 (DTC) cells; type: cell-based; settings: H1975 # 28 DTC (Del19/T790M/C797S), 16h treatment; for DC50: HTRF; for Dmax (%): maximum percentage of degradation
Outline: as §1

Compound | DC50 (L858R/T790M/C797S EGFR) | Dmax (L858R/T790M/C797S EGFR) | DC50 (Del19/T790M/C797S EGFR) | Dmax (%) (Del19/T790M/C797S EGFR)
Cc1cc2cc(n1)-c1cnn(C)c1OCCC[C@@H](C)CN1/C(=N/C2=O)Nc2ccc(C(=O)N3CC[C@@H](NCCc4cc(F)c([C@H]5CCC(=O)NC5=O)c(F)c4)C3)cc21 [Example 296, (R)-3-(2,6-difluoro-4-(2-(((R)-1-((R,E)-1^1,2^6,7-trimethyl-3-oxo-5^2,5^3-dihydro-1^1H,5^1H-11-oxa-4-aza-5(2,1)-benzo[d]imidazola-2(2,4)-pyridina-1(4,5)-pyrazolacycloundecaphane-5′-carbonyl)pyrrolidin-3-yl)amino)ethyl)phenyl)piperidine-2,6-dione] | 0.707 nM | 84.8% | 0.842 nM | 51.36%
Cc1cc2cc(n1)-c1cnn(C)c1OCCC[C@@H](C)CN1/C(=N/C2=O)Nc2ccc(C(=O)N3CC[C@H](NCCc4cc(F)c([C@H]5CCC(=O)NC5=O)c(F)c4)C3)cc21 [Example 298, (R)-3-(2,6-difluoro-4-(2-(((S)-1-((R,E)-1^1,2^6,7-trimethyl-3-oxo-5^2,5^3-dihydro-1^1H,5^1H-11-oxa-4-aza-5(2,1)-benzo[d]imidazola-2(2,4)-pyridina-1(4,5)-pyrazolacycloundecaphane-5^6-carbonyl)pyrrolidin-3-yl)amino)ethyl)phenyl)piperidine-2,6-dione] | 1.14 nM | 90.1% | 1.2 nM | 66.58%
Cc1cc2cc(n1)-c1cnn(C)c1OCCC[C@@H](C)CN1/C(=N/C2=O)Nc2ccc(C(=O)N3CCC(NCCc4cc(F)c([C@H]5CCC(=O)NC5=O)c(F)c4)CC3)cc21 [Example 300, (R)-3-(2,6-difluoro-4-(2-((1-((R,E)-1^1,2^6,7-trimethyl-3-oxo-5^2,5′-dihydro-1^1H,5^1H-11-oxa-4-aza-5(2,1)-benzo[d]imidazola-2(2,4)-pyridina-1(4,5)-pyrazolacycloundecaphane-5^6-carbonyl)piperidin-4-yl)amino)ethyl)phenyl)piperidine-2,6-dione] | 0.653 nM | 88.2% | 1.48 nM | 73.74%
Cc1cc2cc(n1)-c1cnn(C)c1OCCC[C@@H](C)CN1/C(=N/C2=O)Nc2ccc(C(=O)N3CCN(C4CCN(c5cc(F)c([C@H]6CCC(=O)NC6=O)c(F)c5)CC4)CC3)cc21 [Example 303, (R)-3-(2,6-difluoro-4-(4-(4-((R,E)-1^1,2^6,7-trimethyl-3-oxo-5^2,5^3-dihydro-1^1H,5^1H-11-oxa-4-aza-5(2,1)-benzo[d]imidazola-2(2,4)-pyridina-1(4,5)-pyrazolacycloundecaphane-5^6-carbonyl)piperazin-1-yl)piperidin-1-yl)phenyl)piperidine-2,6-dione] | 0.582 nM | 80.9% | 0.246 nM | 63.64%

Now those with a lower DC50 (L858R/T790M/C797S EGFR), led by results:

DC50 (L858R/T790M/C797S EGFR) | Dmax (L858R/T790M/C797S EGFR) | DC50 (Del19/T790M/C797S EGFR) | Compound | Dmax (%) (Del19/T790M/C797S EGFR)
0.468 nM | 86.9% | 0.611 nM | Cc1cc2cc(n1)-c1cnn(C)c1OCCC[C@@H](C)CN1/C(=N/C2=O)Nc2ccc(C(=O)N3CCC(N(C)CCc4cc(F)c([C@H]5CCC(=O)NC5=O)c(F)c4)CC3)cc21 [Example 299, (R)-3-(2,6-difluoro-4-(2-(methyl(1-((R,E)-1^1,2^6,7-trimethyl-3-oxo-5^2,5^3-dihydro-1^1H,5^1H-11-oxa-4-aza-5(2,1)-benzo[d]imidazola-2(2,4)-pyridina-1(4,5)-pyrazolacycloundecaphane-5^6-carbonyl)piperidin-4-yl)amino)ethyl)phenyl)piperidine-2,6-dione] | 66.17%
0.432 nM | 91.7% | 0.292 nM | Cc1cc2cc(n1)-c1cnn(C)c1OCCC[C@@H](C)CN1/C(=N/C2=O)Nc2ccc(C(=O)N3CC[C@H](N(C)CCc4cc(F)c([C@H]5CCC(=O)NC5=O)c(F)c4)C3)cc21 [Example 297, (R)-3-(2,6-difluoro-4-(2-(methyl((S)-1-((R,E)-1^1,2^6,7-trimethyl-3-oxo-5^2,5^3-dihydro-1^1H,5^1H-11-oxa-4-aza-5(2,1)-benzo[d]imidazola-2(2,4)-pyridina-1(4,5)-pyrazolacycloundecaphane-5^6-carbonyl)pyrrolidin-3-yl)amino)ethyl)phenyl)piperidine-2,6-dione] | 79.64%
